What was measured:
B. subtilis 168 [1] = assay: fitness (endpoint OD595 vs no drug) (fraction); higher = more growth
Outline: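 In 384-well plates at 37 °C, cultures began at OD595 0.01 in 30 µl, with 55 µl used for S. pneumoniae. OD595 readings every 30 min for 14 h were corrected by the first reading. Fitness divides the stationary-phase transition optical density by the robust mean of no-drug control wells. The result is capped at 1.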

B. subtilis 168 [2] = assay: Bliss interaction score (quartile over a dose matrix) (fitness difference); higher = more antagonism (negative = synergy)
Outline: (§1)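 The Bliss score is observed minus expected fitness, where expected fitness is the product of the single-drug fitness values inferred from the combination data. Fitness is the OD595 at the onset of stationary phase over the plate's robust no-drug mean, capped at 1. Scores are summarised by quartiles over technical, biological and donor/recipient replicates.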

S. pneumoniae D39V = assay: as above
Outline: as §1

S. aureus DSM 20231 = assay: as above
Outline: as §1

S. aureus Newman = assay: as above
Outline: as §1
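Throughout, for Bliss interaction score (quartile over a dose matrix): first quartile when negative (synergy) and third quartile when positive (antagonism).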
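Throughout, for fitness (endpoint OD595 vs no drug): OD595 on entry to stationary phase over no-drug wells; at most 1.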

CNC(C)C1CCC(N)C(OC2C(N)CC(N)C(OC3OCC(C)(O)C(NC)C3O)C2O)O1 (centres undefined) [Gentamicin] + CO[C@@H]1[C@@H](OC(N)=O)[C@@H](O)[C@H](Oc2ccc3c(O)c(NC(=O)c4ccc(O)c(CC=C(C)C)c4)c(=O)oc3c2C)OC1(C)C [Novobiocin]
fitness, B. subtilis 168 [1], main component drawn
Settings	first compound 0.0625 µg/mL	first compound 0.125 µg/mL	first compound 0.25 µg/mL
partner 0.0125 µg/mL	0.915	–	0.0845
partner 0.025 µg/mL	0.938	0.692	0.0329
partner 0.05 µg/mL	0.998	0.705	–

fitness, B. subtilis 168 [1], one replicate, main component drawn
Settings	partner 0.1 µg/mL	partner 0.125 µg/mL	partner 0.2 µg/mL	partner 0.25 µg/mL	partner 0.5 µg/mL
first compound 0.0625 µg/mL	≥ 1	0.907	≥ 1	0.987	0.515
first compound 0.125 µg/mL	0.946	0.501	0.978	0.302	0.111
first compound 0.25 µg/mL	0.152	0.056	0.476	0.0399	0.0406

main component drawn
Settings	Bliss interaction score
B. subtilis 168 [2]	0.137
S. aureus DSM 20231	-0.0708
S. aureus Newman	0.0684
S. pneumoniae D39V	0.0522

CC[C@H]1OC(=O)[C@H](C)[C@@H](O[C@H]2C[C@@](C)(OC)[C@@H](O)[C@H](C)O2)[C@H](C)[C@@H](O[C@@H]2O[C@H](C)C[C@H](N(C)C)[C@H]2O)[C@](C)(O)C[C@@H](C)CN(C)[C@H](C)[C@@H](O)[C@]1(C)O [Azithromycin] + CO[C@@H]1[C@@H](OC(N)=O)[C@@H](O)[C@H](Oc2ccc3c(O)c(NC(=O)c4ccc(O)c(CC=C(C)C)c4)c(=O)oc3c2C)OC1(C)C [Novobiocin]
fitness, B. subtilis 168 [1]
Settings	partner 0.0125 µg/mL	partner 0.025 µg/mL	partner 0.05 µg/mL	partner 0.1 µg/mL	partner 0.2 µg/mL
first compound 0.25 µg/mL	0.897	0.888	0.894	0.954	0.931
first compound 0.5 µg/mL	0.867	0.814	0.868	0.865	0.878
first compound 1 µg/mL	0.642	0.63	–	–	–

fitness, B. subtilis 168 [1], one replicate
Settings	first compound 0.5 µg/mL	first compound 1 µg/mL	first compound 2 µg/mL
partner 0.125 µg/mL	0.772	0.765	0.347
partner 0.25 µg/mL	0.781	0.597	0.167
partner 0.5 µg/mL	0.507	0.473	0.0776

Settings	Bliss interaction score
B. subtilis 168 [2]	0.0746
S. aureus DSM 20231	0.0496
S. aureus Newman	0.157
S. pneumoniae D39V	-0.0647

CC1=C(C(=O)O)N2C(=O)[C@@H](NC(=O)[C@H](N)c3ccccc3)[C@H]2SC1 [Cephalexin] + COc1cc(Cc2cnc(N)nc2N)cc(OC)c1OC [Trimethoprim]
fitness, B. subtilis 168 [1]
Settings	first compound 0.125 µg/mL	first compound 0.25 µg/mL	first compound 0.5 µg/mL	first compound 1 µg/mL
partner 0.25 µg/mL	–	0.685	–	0.699
partner 0.5 µg/mL	0.445	0.465	0.517	0.528

fitness, B. subtilis 168 [1], one replicate
Settings	partner 0.1 µg/mL	partner 0.125 µg/mL	partner 0.2 µg/mL	partner 0.4 µg/mL	partner 1 µg/mL	partner 2 µg/mL
first compound 0.125 µg/mL	–	–	–	–	0.48	0.501
first compound 0.25 µg/mL	0.915	0.749	0.791	0.533	0.402	0.418
first compound 0.5 µg/mL	0.884	0.758	0.809	0.565	0.372	0.509
first compound 1 µg/mL	0.879	0.759	0.86	0.572	–	–

Settings	Bliss interaction score
B. subtilis 168 [2]	0.113
S. aureus DSM 20231	-0.058
S. aureus Newman	-0.0582
S. pneumoniae D39V	0.0759

Reference: the supplement of paper PMC10627819
